Values of other authors as cited in US20150265683A1, “Stable aqueous composition comprising human insulin or an analogue or derivative thereof” (WOCKHARDT LIMITED, priority 2012, published 2015).

Details: not given

Substance	onset of action (begins to work) after administration [min]	onset of action (starts working) after administration [h]
Asp^B28 human insulin [insulin aspart]	5 to 15	
Gly(A21)-Arg(B31)-Arg(B32)-human insulin [Insulin glargine]		1 to 2
Insulin detemir		1 to 2
Isophane Insulin: Intermediate-acting insulin		1 to 3
Lys^B28 Pro^B29 human insulin [insulin lispro]	5 to 15	
Regular insulin: Short-acting insulin	≤ 30	

Same assay, conditions: after administration

Substance	duration of action [h]
Asp^B28 human insulin [insulin aspart]	3 to 4
Isophane Insulin: Intermediate-acting insulin	16 to 24
Lys^B28 Pro^B29 human insulin [insulin lispro]	3 to 4
Regular insulin: Short-acting insulin	5 to 8
